In PMC3445454, “Broad and Cross-Clade CD4^+ T-Cell Responses Elicited by a DNA Vaccine Encoding Highly Conserved and Promiscuous HIV-1 M-Group Consensus Peptides” (PLoS ONE, 2012):
Residue numbers refer to the chain shown, from its start. Where two headings read alike, the source gives them in different places. Ends that are not written are not given here.

Legend:
Test in all cases: biochemical
[1] = target: HLA-DR DRB5*01:01 (Homo sapiens, UniProt P01903+Q30154); assay type: binding
[2] = target: HLA-DR DRB1*01:01 (Homo sapiens, UniProt P01903+P01911, A100R/D57E/F55L/F60I/F76Y/I96L/L162R/M171V/P40L/Q125E/R42F/V115G/Y59C); assay type: binding
[3] = target: HLA-DR DRB1*15:01 (Homo sapiens, UniProt P01903+P01911); assay type: binding
[4] = target: HLA-DR DRB3*01:01 (Homo sapiens, UniProt P01903+P79483); assay type: binding
[5] = target: HLA-DR DRB1*16:02 (Homo sapiens, UniProt P01903+P01911, A100R/F76Y/I96L/Q99D/V115G); assay type: binding
[6] = target: T1, HLA-DP DPA1*02:01/DPB1*05:01 (Homo sapiens, UniProt P04440+P20036, A65V/A84E/F191V/F64L/G113D/G114E/K142R/L158P/M116V/M62Q/P115A/Q81R/R125K/T114A/T199I/T259P/V234M); assay type: binding
T1 sequence (P20036 29-260 A42M/M62Q/Q81R/T114A/K142R/L158P/F191V/T259P): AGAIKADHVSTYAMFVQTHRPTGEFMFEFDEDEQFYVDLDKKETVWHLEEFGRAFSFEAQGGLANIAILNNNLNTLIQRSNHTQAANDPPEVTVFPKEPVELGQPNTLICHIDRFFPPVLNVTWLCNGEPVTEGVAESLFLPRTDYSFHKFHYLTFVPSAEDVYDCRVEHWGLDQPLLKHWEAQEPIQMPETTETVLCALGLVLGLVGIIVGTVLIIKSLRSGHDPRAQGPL
T1 sequence (P04440 30-258 F64L/A65V/A84E/G113D/G114E/P115A/M116V/R125K/T199I/V234M): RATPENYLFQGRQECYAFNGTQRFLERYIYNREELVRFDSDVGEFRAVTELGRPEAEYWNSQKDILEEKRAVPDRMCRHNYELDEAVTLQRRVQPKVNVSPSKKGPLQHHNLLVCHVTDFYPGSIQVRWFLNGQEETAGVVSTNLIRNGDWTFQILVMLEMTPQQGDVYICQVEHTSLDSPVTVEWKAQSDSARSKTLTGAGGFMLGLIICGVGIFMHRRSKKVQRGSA

[7] = target: HLA-DP DPA1*03:01/DPB1*04:02 (Homo sapiens, UniProt P04440+P20036, A42M/A65V/A84D/A85E/L207M/L97S)
[8] = target: HLA-DR DRB4*01:01 (Homo sapiens, UniProt P01903+P13762, G164S); assay type: binding
[9] = target: T2, HLA-DP DPA1*01:03/DPB1*02:01 (Homo sapiens, UniProt P04440+P20036, A65V/A84D/A85E/K98E); assay type: binding
T2 sequence (P20036 29-260): T1 sequence (P20036 29-260 A42M/M62Q/Q81R/T114A/K142R/L158P/F191V/T259P) with M14A, Q34M, R53Q, A86T, R114K, P130L, V163F, P231T
T2 sequence (P04440 30-258 A65V/A84D/A85E/K98E): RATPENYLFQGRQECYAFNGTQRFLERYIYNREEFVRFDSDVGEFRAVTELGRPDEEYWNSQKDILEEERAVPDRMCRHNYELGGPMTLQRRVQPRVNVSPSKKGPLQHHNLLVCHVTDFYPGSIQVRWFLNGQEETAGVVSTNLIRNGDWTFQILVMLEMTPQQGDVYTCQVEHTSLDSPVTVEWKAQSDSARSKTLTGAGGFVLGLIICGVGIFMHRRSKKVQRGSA

[10] = target: HLA-DR DRB1*04:01 (Homo sapiens, UniProt P01903+P01911, A100K/A169T/F76Y/I96L/K127E/L162R/M171V/N62H/P40V/Q125Y/R42H/S133A/S149N/S66Y/V115G/V209L/W38E); assay type: binding
[11] = target: HLA-DR DRB1*08:02 (Homo sapiens, UniProt P01903+P01911, A100R/A103L/A169T/F76Y/H45Y/I96F/K41T/L162R/M171V/P40S/Q125H/Q178H/Q39Y/Q99D/R218S/R42G/S66Y/V115G/W38E); assay type: binding
[12] = target: T3, HLA-DP DPA1*01:03/DPB1*20:01 (Homo sapiens, UniProt P04440+P20036, A65V/A84D/A85E/E86D/F38Y/G113D/G114E/G40L/I94L/L37V/M116V/P115A/R125K/T199I); assay type: binding
T3 sequence (P20036 29-260): T1 sequence (P20036 29-260 A42M/M62Q/Q81R/T114A/K142R/L158P/F191V/T259P) with M14A, Q34M, R53Q, A86T, R114K, P130L, V163F, P231T
T3 sequence (P04440 30-258 L37V/F38Y/G40L/A65V/A84D/A85E/E86D/I94L/G113D/G114E/P115A/M116V/R125K/T199I/V234M): T1 sequence (P04440 30-258 F64L/A65V/A84E/G113D/G114E/P115A/M116V/R125K/T199I/V234M) with L8V, F9Y, G11L, L35F, E55D, A56E, E57D, I65L

[13] = target: HLA-DR DRB1*04:05 (Homo sapiens, UniProt P01903+P01911, A100R/A169T/D86S/F76Y/I96L/K127E/L162R/M171V/N62H/P40V/Q125Y/R42H/S133A/S149N/S66Y/V115G/V209L/W38E); assay type: binding
[14] = read-out: Binding capacity/IC50 (nM) DRB5*01:01
[15] = read-out: Binding capacity/IC50 (nM) DRB1*15:01
[16] = read-out: Binding capacity/IC50 (nM) DPA1*02:01 DPB1*05:01
[17] = read-out: Binding capacity/IC50 (nM) DRB4*01:01
[18] = read-out: Binding capacity/IC50 (nM) DPA1*01:03 DPB1*02:01
[19] = read-out: Binding capacity/IC50 (nM) DRB1*01:01
[20] = read-out: Binding capacity/IC50 (nM) DRB1*04:05
[21] = read-out: Binding capacity/IC50 (nM) DRB1*16:02
[22] = read-out: Binding capacity/IC50 (nM) DRB1*04:01
[23] = read-out: Binding capacity/IC50 (nM) DRB1*08:02
[24] = read-out: Binding capacity/IC50 (nM) DPA1*01:03 DPB1*20:01
[25] = read-out: Binding capacity/IC50 (nM) DRB3*01:01

Row | Molecule | IC50 [1, 14] [nM] | IC50 [3, 15] [nM] | IC50 [4] [nM] | IC50 [6, 16] [nM] | IC50 [7] [nM] | IC50 [8, 17] [nM] | IC50 [9, 18] [nM] | IC50 [12] [nM] | IC50 [2, 19] [nM] | IC50 [13, 20] [nM] | IC50 [5, 21] [nM] | IC50 [10, 22] [nM] | IC50 [11, 23] [nM] | IC50 [12, 24] [nM] | IC50 [4, 25] [nM] | further results
1 | EAVRHFPRPWLHGL-NH2 [vpr(29-42)] | 731 | 112 | 7870 | 8450 | 139 | 278 | 2140 | 31 |  |  |  |  |  |  |  | IC50 [2]: 71 nM; IC50 [5]: 367 nM; IC50 [10]: 1290 nM; IC50 [11]: 130 nM
2 | NYPIVQNLQGQMVHQAISPR-NH2 [p17(131-132)/p24(1-18)] |  | 211 | 517 |  | 484 | 131 | 55 |  | 4.4 | 428 | 68 | 83 | 71 | 952 |  | IC50 [6]: 2520 nM
3 | LNKIVRMYSPVSILDI-NH2 [p24(138-153)] |  |  |  | 220 | 1 | 25 |  |  |  | 49 |  |  | 3.1 | 3 |  | IC50 [9]: 357 nM
4 | CC[C@H](C)[C@H](NC(=O)CNC(=O)[C@H](CCCCN)NC(=O)[C@H](Cc1c[nH]cn1)NC(=O)[C@H](C)NC(=O)[C@@H]1CCCN1C(=O)[C@@H](NC(=O)[C@H](Cc1c[nH]c2ccccc12)NC(=O)[C@H](CO)NC(=O)[C@H](CC(C)C)NC(=O)[C@H](Cc1ccc(O)cc1)NC(=O)[C@@H](NC(=O)[C@H](CCCCN)NC(=O)[C@H](CCC(=O)O)NC(=O)[C@@H](N)CCCCN)C(C)C)C(C)C)C(=O)NCC(=O)NCC(=O)N[C@@H](CC(N)=O)C(=O)N[C@@H](CCC(=O)O)C(N)=O [RT(528-546)] | 16 |  | 576 | 3560 | 150 | 57 | 45 | 6 | 16 | 41 |  | 68 |  |  |  | IC50 [3]: 97 nM
5 | YAKMRSAHTNDVKQL-NH2 [RT(354-368)] | 80 | 773 |  | 2190 | 6960 | 1440 | 687 |  |  | 926 | 58 | 79 | 2.1 | 202 |  | 
6 | IVALIIAIVVWTIV-NH2 [vpu(13-26)] | > 30000 | 2030 |  | > 30000 | 1300 |  | 29900 |  | 261 | 14900 | 4360 | 19600 | 765 | 5810 |  | 
7 | VGSLQYLALTALITPKK-NH2 [vif(142-158)] |  | 3.8 |  | 20 | 1.5 |  | 76 | 262 |  |  |  |  |  |  | 942 | IC50 [1]: 2.4 nM; IC50 [2]: 0.35 nM; IC50 [13]: 2.3 nM; IC50 [8]: 78 nM; IC50 [10]: 6.4 nM; IC50 [11]: 25 nM
8 | IRYPLTFGWCFKLVPVDPREVEEA-NH2 [nef(133-156)] |  |  |  | 4780 | 670 | 1640 | 119 |  | 315 | 398 | 2740 |  | 2160 | 13000 | 3440 | IC50 [1]: 317 nM; IC50 [3]: 718 nM
9 | DEELLKAVRIIKILYQSNP-NH2 [rev(9-27)] |  |  |  | 370 | 5.8 |  |  |  | 7.4 | 64 | 74 | 13 | 9.5 | 202 | 978 | IC50 [9]: 7 nM
